Measurements from PubChem BioAssay (NCI).
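Values below derive from 48-hour exposures of cells grown in 96-well plates, with endpoints linearly interpolated between the two concentrations bracketing the appropriate inhibition level. GI50 = concentration required for 50% inhibition of growth. TGI denotes the concentration required for complete inhibition of growth.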

Columns and labels:
Assay in all cases: DTP human tumour cell line panel, 48 h
[1] = tested on: UACC-257 melanoma
[2] = tested on: OVCAR-3 ovarian
[3] = tested on: 786-0 renal
[4] = tested on: PC-3 prostate
[5] = tested on: HCT-116 colon
[6] = tested on: MCF7 breast
[7] = tested on: HT29 colon
[8] = tested on: SK-MEL-5 melanoma
[9] = tested on: SNB-19 CNS
[10] = tested on: SNB-75 CNS

Compound	GI50 [1] [µM]	TGI [1] [µM]	GI50 [2] [µM]	TGI [2] [µM]	GI50 [3] [µM]	TGI [3] [µM]	GI50 [4] [µM]	TGI [4] [µM]	GI50 [5] [µM]	TGI [5] [µM]	GI50 [6] [µM]	TGI [6] [µM]	GI50 [7] [µM]	TGI [7] [µM]	GI50 [8] [µM]	TGI [8] [µM]	TGI [9] [µM]	TGI [10] [µM]	GI50 [9] [µM]	GI50 [10] [µM]
Cc1ccc(C(=O)CN(/C=C/C(=O)C(F)(F)F)c2ccc(S(N)(=O)=O)cc2)cc1	> 100	> 100	42.6	> 100	> 100	> 100	59.8	> 100	41.9	> 100	59.8	> 100	> 100	> 100	49.8	> 100				
Oc1cccnc1CN1CCCCC1		> 100		> 100		> 100		> 100		> 100		> 100		> 100		> 100	> 100	> 100		
CN1C/C=C\CCOc2cccc(c2)-c2ccnc(n2)Nc2cccc(c2)C1	0.0722	0.371	0.0419	0.769	0.0568	0.802	0.0713	0.435	0.0298	0.677	0.0354	1.23	0.0497	0.976	0.0502	0.205	4.25	0.169	0.057	0.0545
COc1cc(/C=C/c2cc(/C=C/c3ccc(O)c(OC)c3)n(C(=O)Nc3ccc(F)c(Cl)c3)n2)ccc1O	1.18	5.32	0.263	0.837	0.52	1.71	0.365	6.58			0.185	1.51	1.31	4.26	0.243	1.37	2.1		0.514	
COc1ccc(-c2n[nH]nc2-c2cc(OC)c(OC)c(OC)c2)cc1	< 0.01	31.2	< 0.01	< 0.01	< 0.01	17.5	0.0638	> 100	< 0.01	> 100	< 0.01	> 80.7	< 0.01	0.0481	< 0.01	0.0224	> 100	92.9		< 0.01
COc1cc2c3c(n(CCCNC(=O)OCC4c5ccccc5-c5ccccc54)c(=O)c2cc1OC)-c1cc2c(cc1/C3=C\CCNC(=O)OCC1c3ccccc3-c3ccccc31)OCO2	> 50	> 50	> 44.6	> 50	> 16.2	> 29.8	> 50	> 50		> 12.9		> 18.5	21.5	> 50	> 50	> 50	> 50	> 50	> 29.6	> 50
COc1ccc(Cn2cc3c(c2-c2ccccc2)CC(C)(C)c2cnoc2-3)cc1	9.64	> 100	0.662	3.28	4.1	> 100	3.27	> 100	1.47	> 100	0.87	> 100	0.95	7.53	1.6	9.61	> 100	6.15	4.96	1.63
C[C@@]12CC=C3c4nc(Nc5cccc(O)c5)sc4CC[C@]3(C)[C@H]1CC[C@]1(C)C(=O)CC[C@@H]21	3.69	> 100	1.66	3.1	1.55	4.91	1.41	7.02			1.85	4.43	1.96	6.43	5.7	> 100	55.7	> 100	3.88	3.19
CC(=O)CSCc1ccccn1		> 100		> 100		> 100		> 100		> 100				> 100		> 100	> 100	71.9		
CC(C)(C)c1cc(C(C)(C)C)cc(S(=O)(=O)Nc2cc3ccccc3cc2C(=O)NCCN)c1	2.09	4.02	1.75	3.21	1.67	3.09	2.4	6.23	1.75	3.22	1.53	2.95	1.93	3.95	1.75	3.13	3.52	4.16	1.89	1.58
COc1cc2ncnc(Nc3ccc(C)c(O)c3)c2cc1OC	> 25	> 25	8.94	> 25	11.4	> 25	> 19.8	> 25	> 25	> 25	> 25	> 25	14.7	> 25	> 25	> 25	> 25	> 24	> 25	4.9
CN(C)C(=O)c1cc2cnc(Nc3ccc(-c4csc5c(=S)cc(N6CCOCC6)oc45)cc3)nc2n1C1CCCC1	1.24	> 14.7	0.91	> 50	0.63	> 50	0.312	> 10.8	0.242	> 50	0.235	2.44	0.515	> 50	0.715	2.43	> 34.5	2.04	0.498	0.314
NCC1Nc2ccccc2[C@@H](O)C1O (some centres undefined)		> 100		> 100		> 100		> 100		> 100		> 100		> 100		> 100	> 100	> 100		
O=S(=O)(N=S(c1ccccc1)c1ccccc1)c1ccccc1		> 100		> 100		> 100		> 100		> 100		> 100		> 100			> 100			
